This is an account of results in ChEMBL document CHEMBL1201862, “PubChem BioAssay data set” (2004).

Holding throughout (assay): NCI-60 cell line screen, 48 h
The subject of assay [1] is CAKI-1.
The test system of assay [2] is EKVX.
In assay [3] the test system is HCT-116.
The subject of assay [4] is IGROV-1.
For assay [5], the system named is KM12.
Assay [6] deals with NCI-H460.
The test system of assay [7] is OVCAR-3.
Assay [8] deals with OVCAR-4.
In assay [9] the test system is OVCAR-5.
For assay [10], the system named is RPMI-8226.
For assay [11], the system named is RXF 393.
Assay [12] has as its system SF-268.
In assay [13] the test system is SF-539.
Assay [14] concerns SK-MEL-2.
Assay [15] concerns SK-MEL-5.
Assay [16] relates to SK-OV-3.
For assay [17], the system named is SNB-19.
Assay [18] deals with SW-620.
The test system of assay [19] is UACC-257.
Assay [20] has as its system UACC-62.

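Compound exposure: 48 hours, 5 concentrations, 96-well plates. GI50 is the concentration that inhibits growth by half.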 Activity calls are given as the source filed them. No stated cut-off is given here; in the data, active = GI50 up to about 1.1 µM and inactive = higher.

Take `NNC(=O)c1ccc(OCc2nc3ccccc3[nH]2)cc1`: the GI50 in assay [1] is > 100 µM (inactive); in assay [2] it was > 100 µM (inactive); in assay [3] it was 29.1 µM (inactive); in assay [4], > 100 µM (inactive); in [5] it was > 100 µM (inactive); in assay [6], 31.8 µM (inactive). The GI50 was 43.5 µM (inactive) in assay [7]; > 100 µM (inactive) in assay [8]; > 100 µM (inactive) in assay [9]; 55.6 µM (inactive) in assay [10]; 34.8 µM (inactive) in assay [11]; 89.3 µM (inactive) in assay [12]. Also, the GI50 in assay [13] was > 100 µM (inactive); in assay [14], > 100 µM (inactive); in [15], 27.9 µM (inactive); in assay [16], > 100 µM (inactive); in assay [17], > 100 µM (inactive); in [18], > 100 µM (inactive). For the same molecule, the GI50 in assay [19] was 66.4 µM (inactive); in [20], > 100 µM (inactive).
Take `NC1CNC(=O)c2c(Cl)sc(Cl)c21` (stereo unspecified): the GI50 in assay [1], in [2], in [3], in assay [4], in assay [5] and in assay [6] was > 100 µM (inactive) each time. Moreover, the GI50 in [7], in assay [8], in assay [9], in assay [10], in assay [11] and in [12] was > 100 µM (inactive) throughout. Further, the GI50 in assay [13], in [14], in [16], in assay [17], in assay [18] and in [19] was > 100 µM (inactive) throughout. The GI50 in assay [20] is > 100 µM (inactive).
For `CCCCCCCCSC1=C(Cl)C(=O)C(OC)=C(OC)C1=O`, the GI50 is 12.3 µM (inactive) in assay [1]; 10.9 µM (inactive) in assay [2]; 4.83 µM (inactive) in [3]; 14.1 µM (inactive) in [4]; 7.53 µM (inactive) in [5]; 15.4 µM (inactive) in assay [6]. Also, the GI50 in [7] was 7.14 µM (inactive); in assay [8], 11.1 µM (inactive); in assay [9], 6.67 µM (inactive); in assay [10] it was 0.52 µM (active); in assay [11] it was 13.2 µM (inactive); in assay [12], 12.4 µM (inactive). For the same molecule, the GI50 is 14.2 µM (inactive) in assay [13]; 15.4 µM (inactive) in assay [14]; 4.74 µM (inactive) in assay [15]; 23.1 µM (inactive) in assay [16]; 10.5 µM (inactive) in [17]; 10.6 µM (inactive) in assay [18]. For the same molecule, the GI50 in [19] is 5.6 µM (inactive); in assay [20], 10.3 µM (inactive).
Regarding `C/C(CC(=O)Nc1ccc(C)c(C)c1)=N\N(c1ccccc1)c1ccccc1`, the GI50 in [1] is 80.7 µM (inactive); in [2] it was > 100 µM (inactive); in [3] it was 43.4 µM (inactive); in assay [4], 64.4 µM (inactive); in assay [5] it was > 100 µM (inactive); in assay [6], > 100 µM (inactive). Further, the GI50 in assay [7] was > 100 µM (inactive); in assay [8] it was 43.4 µM (inactive); in [9], > 100 µM (inactive); in assay [10], 47.1 µM (inactive); in assay [11], 63.2 µM (inactive); in assay [12] it was 58.7 µM (inactive). The GI50 is > 100 µM (inactive) in [13]; 55.6 µM (inactive) in assay [14]; 62.7 µM (inactive) in [15]; > 100 µM (inactive) in assay [16]; > 100 µM (inactive) in assay [17]; > 100 µM (inactive) in assay [19]. Further, the GI50 in assay [20] was 21.6 µM (inactive).
For `Cc1cc2nc3c(N)nn(CCN(C)C)c3nc2cc1C`, the GI50 in [1] is 39.3 µM (inactive); in [2], 58.7 µM (inactive); in assay [3] it was 33.1 µM (inactive); in [4], 27 µM (inactive); in [5], 45.5 µM (inactive); in assay [6] it was 32.8 µM (inactive). In addition, the GI50 in assay [7] is 55 µM (inactive); in [8], 40.6 µM (inactive); in [9] it was 52 µM (inactive); in assay [10], 63.7 µM (inactive); in assay [11] it was 30.4 µM (inactive); in assay [12] it was 38.5 µM (inactive). Moreover, the GI50 in assay [13] was 28.1 µM (inactive); in assay [14] it was 39 µM (inactive); in assay [15] it was 24.6 µM (inactive); in assay [16], 45.2 µM (inactive); in assay [17], 40.7 µM (inactive); in assay [18], 38.7 µM (inactive). The figures for the GI50 in [19] and in assay [20] were 41.7 µM (inactive) and 39.5 µM (inactive), respectively.
In the case of `CC(=O)O[C@H]1[C@@H](N2CCOCC2)C[C@H]2[C@@H]3CC=C4C[C@@H](N5CCCC5)CC[C@]4(C)[C@H]3CC[C@@]21C`, the GI50 in assay [1] was > 100 µM (inactive); in [2], > 100 µM (inactive); in [3] it was 65.8 µM (inactive); in [4], > 100 µM (inactive); in [5] it was > 100 µM (inactive); in [6] it was > 100 µM (inactive). Also, the GI50 in assay [7], in assay [8], in [9], in [10], in [11] and in assay [12] was > 100 µM (inactive) each time. Also, the GI50 is 73.8 µM (inactive) in [13]; > 100 µM (inactive) in assay [14]; > 100 µM (inactive) in assay [15]; > 100 µM (inactive) in assay [16]; > 100 µM (inactive) in assay [17]; > 100 µM (inactive) in assay [18]. For the same molecule, the GI50 in assay [19] and in [20] was > 100 µM (inactive) each time.
Take `Brc1cccc(C2(CCCC3(c4cccc(Br)n4)OCCO3)OCCO2)n1`: the GI50 in [1], in assay [2], in assay [3], in assay [4], in assay [5] and in assay [6] was > 100 µM (inactive) throughout. Further, the GI50 in assay [7] is > 100 µM (inactive); in assay [8], > 100 µM (inactive); in assay [9], > 100 µM (inactive); in assay [10], > 100 µM (inactive); in [11] it was 72.4 µM (inactive); in [12] it was 21.2 µM (inactive). Also, the GI50 in assay [13] was 39.2 µM (inactive); in assay [14], > 100 µM (inactive); in assay [15] it was > 100 µM (inactive); in assay [16], > 100 µM (inactive); in [17] it was > 100 µM (inactive); in [18], > 100 µM (inactive). Further, the GI50 in [19] was > 100 µM (inactive).
For `CCCCCC[C@H]1C(=O)O[C@H](C)[C@H](NC(=O)c2cccc(NC=O)c2OC)C(=O)O[C@@H](C)[C@@H]1OC(=O)C(C)CC.CCCCCC[C@H]1C(=O)O[C@H](C)[C@H](NC(=O)c2cccc(NC=O)c2OC)C(=O)O[C@@H](C)[C@@H]1OC(=O)CC(C)C` (stereo partly specified), the GI50 is 12.9 µM (inactive) in [1]; 7.62 µM (inactive) in assay [2]; 10.1 µM (inactive) in assay [3]; 18.8 µM (inactive) in [5]; 4.83 µM (inactive) in assay [6]; 6.71 µM (inactive) in assay [7]. Further, the GI50 is 5.41 µM (inactive) in [8]; > 100 µM (inactive) in assay [9]; 8.57 µM (inactive) in assay [10]; > 100 µM (inactive) in assay [11]; 26.1 µM (inactive) in assay [12]; 29.3 µM (inactive) in [13]. For the same molecule, the GI50 in [14] was 25.6 µM (inactive); in assay [15], 5.15 µM (inactive); in assay [16] it was 15.3 µM (inactive); in assay [18], 14.5 µM (inactive); in assay [19], 3.96 µM (inactive); in [20], 8.49 µM (inactive).
`COc1ccc2c(C3(O)CCNCC3)c[nH]c2c1`: the GI50 in assay [1], in assay [2], in assay [4], in assay [5], in assay [6] and in assay [7] was > 100 µM (inactive) in each case. For the same molecule, the GI50 in assay [8], in [9], in assay [10], in [11], in assay [12] and in assay [13] was > 100 µM (inactive) throughout. The GI50 in [14], in assay [15], in assay [16], in [17], in assay [18] and in assay [20] was > 100 µM (inactive) throughout.
Turning to `CC[N+](CC)(CC)/C(=N\S(=O)(=O)c1ccc(Cl)cc1)[N-]S(=O)(=O)c1cc(C)c(Cl)cc1S`, the GI50 in assay [1] is > 100 µM (inactive); in [2], > 100 µM (inactive); in assay [3], 26.5 µM (inactive); in [4], > 100 µM (inactive); in assay [5], > 100 µM (inactive); in assay [6] it was 41 µM (inactive). Further, the GI50 in assay [7] is 83 µM (inactive); in assay [8] it was 65.5 µM (inactive); in [9] it was 58.2 µM (inactive); in [10], 47.3 µM (inactive); in [11], 78.2 µM (inactive); in assay [12] it was > 100 µM (inactive). The GI50 in [13] was 57.3 µM (inactive); in [14], > 100 µM (inactive); in assay [15] it was > 100 µM (inactive); in [16], 62.8 µM (inactive); in assay [18], 70.3 µM (inactive); in [19] it was > 100 µM (inactive).
